# Results reported in the supplement of paper PMC10307832.
# Experiments:
# Assay in all cases: relative viability (nuclei count vs DMSO), 5 days (fraction); higher = more cells survive
# [1] = compound: CC1CC(=O)N(C2=CN=C(N=C2N1C3CCCC3)NC4=C(C=C(C=C4)C(=O)NC5CCN(CC5)C)OC)C [NPK76-II-72-1] + CC1(C)CCC(c2ccc(Cl)cc2)=C(CN2CCN(c3ccc(C(=O)NS(=O)(=O)c4ccc(N[C@H](CCN5CCOCC5)CSc5ccccc5)c(S(=O)(=O)C(F)(F)F)c4)cc3)CC2)C1 [Navitoclax] (partner 0.5 µM)
# In short: (§1)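 Lung cancer cell lines in 1536-well plates were dosed by pin tool the day after seeding, either with one drug alone or with a fixed anchor-drug dose plus five library-drug doses (not always all listed) in √10 steps. After 5 days, cells were fixed and their nuclei stained in one step (final 0.05% Triton X-100, 1% formaldehyde, 1 ug/ml Hoechst), then counted on 4× images. Relative viability is the nuclei count in treated wells divided by that in vehicle wells. Values are medians of duplicate plates.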
# [2] = compound: CC1CC(=O)N(C2=CN=C(N=C2N1C3CCCC3)NC4=C(C=C(C=C4)C(=O)NC5CCN(CC5)C)OC)C [NPK76-II-72-1] + CS(=O)(=O)CCNCc1ccc(-c2ccc3ncnc(Nc4ccc(OCc5cccc(F)c5)c(Cl)c4)c3c2)o1 [Lapatinib] (partner 2 µM)
# In short: as §1
# BI-2536 + Luminespib = compound: CC[C@@H]1C(=O)N(C)c2cnc(Nc3ccc(C(=O)NC4CCN(C)CC4)cc3OC)nc2N1C1CCCC1 [BI-2536] + CCNC(=O)c1noc(-c2cc(C(C)C)c(O)cc2O)c1-c1ccc(CN2CCOCC2)cc1 [Luminespib] (partner 0.01 µM)
# In short: as §1
# BI-2536 + Dasatinib = compound: CC[C@@H]1C(=O)N(C)c2cnc(Nc3ccc(C(=O)NC4CCN(C)CC4)cc3OC)nc2N1C1CCCC1 [BI-2536] + Cc1nc(Nc2ncc(C(=O)Nc3c(C)cccc3Cl)s2)cc(N2CCN(CCO)CC2)n1 [Dasatinib] (partner 0.075 µM)
# In short: as §1
Cell Line,relative viability ([1]; first compound 0.01 µM),relative viability ([1]; first compound 0.03162 µM),relative viability ([1]; first compound 0.1 µM),relative viability ([1]; first compound 0.3162 µM),relative viability ([1]; first compound 1 µM),relative viability ([2]; first compound 0.01 µM),relative viability ([2]; first compound 0.03162 µM),relative viability ([2]; first compound 0.1 µM),relative viability ([2]; first compound 0.3162 µM),relative viability ([2]; first compound 1 µM),relative viability (BI-2536 + Luminespib; first compound 0.01 µM),relative viability (BI-2536 + Luminespib; first compound 0.03162 µM),relative viability (BI-2536 + Luminespib; first compound 0.1 µM),relative viability (BI-2536 + Luminespib; first compound 0.3162 µM),relative viability (BI-2536 + Luminespib; first compound 1 µM),relative viability (BI-2536 + Dasatinib; first compound 0.01 µM),relative viability (BI-2536 + Dasatinib; first compound 0.03162 µM),relative viability (BI-2536 + Dasatinib; first compound 0.1 µM),relative viability (BI-2536 + Dasatinib; first compound 0.3162 µM),relative viability (BI-2536 + Dasatinib; first compound 1 µM)
NCI-H520,0.927,1.05,1.01,1.04,1.03,0.735,0.85,0.912,0.857,0.841,0.242,0.199,0.194,0.206,0.214,0.164,0.204,0.194,0.153,0.13
NCI-H647,0.986,1.05,1.23,1.11,1.2,0.932,1.01,–,0.916,1.01,0.13,0.193,0.141,0.0872,0.116,0.156,0.184,0.0428,0.0374,0.039
NCI-H1792,0.599,0.553,0.606,0.624,0.726,0.894,0.965,0.923,0.964,1.01,0.485,0.432,0.388,0.229,0.28,0.762,0.916,0.885,0.498,0.34
SK-LU-1,0.747,0.996,1.31,0.168,0.838,0.897,0.867,0.96,0.776,1.08,0.216,0.2,0.167,0.174,0.169,0.176,0.143,0.108,0.113,0.099
NCI-H1650,1.08,1.12,1.23,1.12,1.07,0.859,0.756,0.912,0.835,0.86,0.188,0.166,0.21,0.183,0.198,0.341,0.321,0.18,0.159,0.12
NCI-H2009,1.11,1.28,1.1,1.14,1.17,0.961,1.09,0.888,0.774,1.15,1.09,0.94,0.696,0.16,0.0773,0.256,0.248,0.169,0.137,0.0971
LOU-NH91,0.635,0.66,0.666,0.517,0.833,0.746,0.759,0.732,0.777,0.822,0.372,0.345,0.306,0.279,0.267,0.599,0.539,0.52,0.289,0.256
NCI-H2405,0.834,0.965,0.806,0.844,1.17,1.13,1.11,1.09,1.04,1.09,0.599,0.435,0.359,0.283,0.31,0.19,0.214,0.178,0.102,0.177
LCLC-97TM1,–,0.392,0.52,0.439,0.488,–,0.887,0.859,0.739,1.32,0.785,0.641,0.504,0.14,0.175,0.943,0.837,0.725,0.155,0.12
NCI-H596,0.862,1.01,0.828,0.965,1.04,1,1.14,1.07,0.914,1.09,1.02,1.12,0.986,0.37,0.29,0.574,0.673,0.449,0.25,0.273
NCI-H727,0.372,0.397,0.572,0.494,0.652,0.97,1.04,0.81,0.979,0.884,0.589,0.324,0.263,0.4,0.201,0.442,0.312,0.319,0.322,0.227
H3255,0.556,0.494,0.52,0.173,0.639,0.263,0.25,0.217,–,0.226,0.846,1.13,0.691,0.239,0.359,0.315,0.237,0.235,0.27,0.25
SK-MES-1,1.19,1.34,1.28,1.24,1.31,0.447,0.449,0.426,0.419,0.465,0.802,0.698,0.23,0.219,0.195,0.415,0.336,0.134,0.115,0.136
NCI-H1437,1.17,1.11,0.967,0.978,1.13,0.769,0.884,0.743,0.716,0.818,1.14,0.961,0.729,0.2,0.164,0.318,0.365,0.247,0.173,0.108
LU99A,0.804,0.766,0.785,0.889,0.692,0.965,0.98,1.02,0.857,1.04,0.251,0.254,0.194,0.159,0.241,0.47,0.593,0.178,0.188,0.159
HCC-827,1.01,1.06,0.978,0.993,1.12,0.194,0.211,0.173,0.171,0.224,0.801,0.35,0.401,0.203,0.138,0.293,0.315,0.334,0.301,0.177
LK-2,0.769,0.83,0.961,0.723,0.879,0.83,0.886,0.877,0.774,1.12,0.184,0.176,0.155,0.177,0.176,0.268,0.313,0.215,0.147,0.137
BEN,0.0828,0.0731,0.0563,0.0637,0.063,0.61,0.548,0.657,0.492,0.697,0.486,0.611,0.282,0.158,0.217,0.34,0.367,0.248,0.184,0.199
NCI-H23,0.774,1.08,–,0.675,0.784,1.03,1.27,–,1.12,0.985,0.231,0.212,0.182,0.225,0.236,0.803,1.02,0.285,0.126,0.107
NCI-H1395,0.994,1.14,1.24,1.46,1.25,1.1,1.11,1.09,1.03,1.07,0.582,0.605,0.511,0.361,0.339,0.413,0.398,0.315,0.297,0.328
201T,1.18,1.18,1.23,1.2,1.19,0.975,1.07,1.04,1.11,1,1.02,0.999,1.05,0.349,0.318,0.579,0.57,0.547,0.402,0.285
NCI-H2170,0.615,0.558,0.565,–,0.643,0.267,0.286,0.257,–,0.268,0.624,0.802,0.661,0.205,0.219,0.626,0.597,0.356,0.16,0.179
NCI-H460,1.17,1.45,1.19,1.18,1.23,0.887,0.948,1.21,1.02,0.966,0.0287,0.0394,0.0295,0.0298,0.0252,0.483,0.635,0.368,0.0145,0.0151
HCC-15,0.692,0.739,0.662,0.686,0.804,0.85,0.879,0.787,0.749,0.895,0.265,0.339,0.144,0.116,0.134,0.557,0.417,0.192,0.112,0.102
EPLC-272H,1.06,0.97,1.12,1.09,1.35,0.905,0.968,1.01,1.04,1.11,0.293,0.166,0.153,0.102,0.0894,0.327,0.357,0.0724,0.0766,0.0856
